# Assay results taken from patent US11497813B2, “Bortezomib conjugates and methods using same” (Frank EBETINO et al., priority 2015, dated 2022).
# System: mice
# Assay: Survival of mice treated with Btz
# Assay type: in vivo, mouse
# Excerpt: BP-Btz is expected to have a higher efficacy on 1) reducing OVX-induced bone loss and 2) promoting fracture healing in aged mice with lesser adverse systemic effects than those of Btz. A critical difference between BP-Btz and Btz is that in vivo BP-Btz brings Btz to bone, thereby exerting its bioactivity locally, while Btz can exert its bioactivity systemically. It is hypothesized that BP-Btz conjugates should have similar or better positive bioactivities than Btz on bone volume, but with a significant reduction in side effects. In humans, the toxicities of Btz include peripheral neuropathy and thrombocytopenis (Weathington and Mallampalli, 2014, J. Clin. Invest. 124:6-12). Little is known the toxicity of Btz in mice. […] Although not wishing to be bound by any particular theory, these adverse effects are thought to be due to the systemic distribution of the drug. Thus, the generation of bone-targeted Btz could meet a critical clinical need, by and increasing the local drug concentration to capitalize on the efficacy of BTz while reducing systemic side effects. Because proteasome inhibitors could increase bone volume in normal and OVX mice, and promote fracture healing in adult mice (Khedgikar et al., 2013, Cell Death Dis. 4:e778; Maseda et al., 2008, Cell Death Differ. 15:600-612), OVX and fracture models are used to examine the efficacy of the leading BP-Btz conjugates on bone. […]
compound,measurement,setting,value
"CC(C)C[C@H](NC(=O)[C@H](Cc1ccccc1)NC(=O)c1cnccn1)B(O)O [Btz, [(1R)-3-methyl-1-[[(2S)-1-oxo-3-phenyl-2[(pyrazinylcarbonyl)amino]propyl]amino]butyl] boronic acid]",survival rate,aged mice,53%
same,survival,young mice,94%
